For 17 compounds, Ki results are on record in patent US20250213735A1, “NEUROPEPTIDE Y1 RECEPTOR (NPY1R) TARGETED THERAPEUTICS AND USES THEREOF” (Radionetics Oncology, Inc., priority 2023, published 2025).

Molecules are shown by their SMILES. pKi: −log10 of the molar value. Numbered stars: 1 amine (or outer) side, 2 acyl side, 3 side chain; on linkers, the order of the positions; unused ones are H or OH. Square brackets hold non-standard residues; d marks the D form. Peptide text beside a SMILES is read from it. * marks the point of attachment. dArg(Nω-CONH(CH2)2NHCOEt) = CCC(=O)NCCNC(=O)/N=C(/N)NCCC[C@@H](N)C(=O)O; DOTA = O=C(O)CN1CCN(CC(=O)O)CCN(CC(=O)*)CCN(CC(=O)O)CC1; X1 = O=C([C@H](c1ccc(OCCCN[*:1])cc1)N1Cc2ccccc2C1)[*:2]; X2 = O=C([C@H](c1cccc(NCCCN[*:1])c1)N1Cc2ccccc2C1)[*:2]; NH(2,6-F2-4-OH-benzyl) = Oc1cc(F)c(CN*)c(F)c1; NH(4-OH-benzyl) = Oc1ccc(CN*)cc1; Sar = CNCC(=O)O

In this experiment the target is hNPY1R (Homo sapiens (Human), UniProt P25929). The experiment can be described thus: NPY1R binding assay (SK-N-MC membrane, [125I]-Peptide YY competition).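 Further: bound radioligand separated by filtration over GF/C filter plates and counted, Ki obtained by non-linear regression.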 As to conditions: crude SK-N-MC membranes endogenously expressing NPY1R; [125I]-Peptide YY (human) 0.05 nM; 120 min at room temperature; read-out: hNPY1R binding Ki.
hNPY1R, sequence (P25929 whole entry): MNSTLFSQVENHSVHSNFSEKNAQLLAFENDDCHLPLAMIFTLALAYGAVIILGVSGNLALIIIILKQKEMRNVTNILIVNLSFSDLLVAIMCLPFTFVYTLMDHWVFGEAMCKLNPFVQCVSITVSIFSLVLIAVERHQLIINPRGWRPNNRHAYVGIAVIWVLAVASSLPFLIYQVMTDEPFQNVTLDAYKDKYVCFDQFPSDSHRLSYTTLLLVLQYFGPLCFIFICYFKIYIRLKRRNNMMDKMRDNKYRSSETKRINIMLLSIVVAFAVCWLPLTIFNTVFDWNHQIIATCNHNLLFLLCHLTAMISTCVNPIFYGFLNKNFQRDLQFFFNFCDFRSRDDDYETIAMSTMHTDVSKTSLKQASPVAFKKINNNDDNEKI
Procedure: Crude membrane fractions are prepared from SK-N-MC cells endogenously expressing the NPY1R receptor. The cells are grown to 85-100% confluence on standard tissue culture dishes in Eagle's Minimum Essential Medium supplemented with 10% dialyzed FBS. To prepare membranes, cells are scraped and collected in 1× Dulbecco's phosphate buffered saline and then pelleted at 1000 RPM's. The cell pellet is reconstituted in membrane preparation buffer (20 mM HEPES, 6 mM MgCl2 and 1 mM EGTA, protease inhibitor tablets, pH 7.4) and placed in a cell disruption vessel at 1000 PSI for 30 minutes on ice. The pressurized contents are then released and spun down at 1000 RPMs and the supernatant is collected and further centrifuged at 15,000 RPMs to pellet the membranes. The membrane pellet is resuspended in membrane preparation buffer, snap frozen and stored at −80° C. for later use.
Assay contents are then filtered through unifilter GF/C microplates and washed with 9×400 μl of cold wash buffer (25 mM HEPES, 5 mM MgCl2, 1 mM CaCl2), 500 mM NaCl, 0.1% Tween-20, pH 7.4). Assay plates are read using a Top Count NXT and Ki values for compounds are determined using a GraphPad Prism 6 non-linear regression analysis.
Regarding `CCNC(=O)/N=C(/N)NCCC[C@@H](NC(=O)[C@@H](c1cccc(NCCCN)c1)N1Cc2ccccc2C1)C(=O)NCc1c(F)cc(O)cc1F` [66B, (R)-2-((R)-2-(3-((3-aminopropyl)amino)phenyl)-2-(isoindolin-2-yl)acetamido)-N-(2,6-difluoro-4-hydroxybenzyl)-5-((Z)-2-(ethylcarbamoyl)guanidino)pentanamide], the pKi is greater than 8.00.
The same measure for `CCNC(=O)/N=C(/N)NCCC[C@@H](NC(=O)[C@H](c1ccccc1)N1Cc2cccc(NCCCN)c2C1)C(=O)NCc1c(F)cc(O)cc1F` [compound 65, (R)-2-((S)-2-(4-((3-aminopropyl)amino)isoindolin-2-yl)-2-phenylacetamido)-N-(2,6-difluoro-4-hydroxybenzyl)-5-((Z)-2-(ethylcarbamoyl)guanidino)pentanamide]: greater than 8.00; for `CCC(=O)NCCNC(=O)/N=C(/N)NCCC[C@@H](NC(=O)[C@H](c1cccc(NCCCNC(=O)CN(C)C(=O)CN(C)C(=O)CN(C)C(=O)CN2CCN(CC(=O)O)CCN(CC(=O)O)CCN(CC(=O)O)CC2)c1)N1Cc2ccccc2C1)C(=O)NCc1ccc(O)cc1` [compound 21, 2,2′,2″-(10-(15-((3-((1S,4R,Z)-9-amino-4-((4-hydroxybenzyl)carbamoyl)-1-(isoindolin-2-yl)-2,11,16-trioxo-3,8,10,12,15-pentaazaoctadec-9-en-1-yl)phenyl)amino)-3,6,9-trimethyl-2,5,8,11-tetraoxo-3,6,9,12-tetraazapentadecyl)-1,4,7,10-tetraazacyclododecane-1,4,7-triyl)triacetic acid] ({DOTA}-[Sar][Sar][Sar][X2][dArg(Nω-CONH(CH2)2NHCOEt)]-{NH(4-OH-benzyl)}): greater than 8.00.
`CCC(=O)NCCNC(=O)/N=C(/N)NCCC[C@@H](NC(=O)[C@H](c1ccc(OCCCNC(=O)CCOCCNC(=O)CN2CCN(CC(=O)O)CCN(CC(=O)O)CCN(CC(=O)O)CC2)cc1)N1Cc2ccccc2C1)C(=O)NCc1ccc(O)cc1` [compound 15, 2,2′,2″-(10-(2-((2-(3-((3-(4-((1S,4R,Z)-9-amino-4-((4-hydroxybenzyl)carbamoyl)-1-(isoindolin-2-yl)-2,11,16-trioxo-3,8,10,12,15-pentaazaoctadec-9-en-1-yl)phenoxy)propyl)amino)-3-oxopropoxy)ethyl)amino)-2-oxoethyl)-1,4,7,10-tetraazacyclododecane-1,4,7-triyl)triacetic acid]: the pKi was greater than 8.00.
The same measure for `CCC(=O)NCCNC(=O)/N=C(/N)NCCC[C@@H](NC(=O)[C@H](c1cccc(NCCCNC(=O)CCC(=O)NCCNC(=O)CN2CCN(CC(=O)O)CCN(CC(=O)O)CCN(CC(=O)O)CC2)c1)N1Cc2ccccc2C1)C(=O)NCc1ccc(O)cc1` [compound 26, 2,2′,2″-(10-(2-((2-(4-((3-((3-((1S,4R,Z)-9-amino-4-((4-hydroxybenzyl)carbamoyl)-1-(isoindolin-2-yl)-2,11,16-trioxo-3,8,10,12,15-pentaazaoctadec-9-en-1-yl)phenyl)amino)propyl)amino)-4-oxobutanamido)ethyl)amino)-2-oxoethyl)-1,4,7,10-tetraazacyclododecane-1,4,7-triyl)triacetic acid]: greater than 8.00.
On to `N=C(N)NCCC[C@@H](NC(=O)C(c1ccccc1)N1CCC2(CC1)CC(F)(F)C2)C(=O)NCc1ccc(O)cc1` (stereo partly drawn) [compound 90, (2R)-2-(2-(2,2-difluoro-7-azaspiro[3.5]nonan-7-yl)-2-phenylacetamido)-5-guanidino-N-(4-hydroxybenzyl)pentanamide], for which the pKi was 6.00 to 7.00.
The same measure for `CCC(=O)NCCNC(=O)/N=C(/N)NCCC[C@@H](NC(=O)[C@H](c1cccc(NCCCNC(=O)CCOCCOCCOCCOCCOCCOCCNC(=O)CN2CCN(CC(=O)O)CCN(CC(=O)O)CCN(CC(=O)O)CC2)c1)N1Cc2ccccc2C1)C(=O)NCc1ccc(O)cc1` [compound 23, 2,2′,2″-(10-(28-((3-((1S,4R,Z)-9-amino-4-((4-hydroxybenzyl)carbamoyl)-1-(isoindolin-2-yl)-2,11,16-trioxo-3,8,10,12,15-pentaazaoctadec-9-en-1-yl)phenyl)amino)-2,24-dioxo-6,9,12,15,18,21-hexaoxa-3,25-diazaoctacosyl)-1,4,7,10-tetraazacyclododecane-1,4,7-triyl)triacetic acid]: greater than 8.00; for `CCC(=O)NCCNC(=O)/N=C(/N)NCCC[C@@H](NC(=O)[C@H](c1ccc(OCCCNC(=O)CN(C)C(=O)CN(C)C(=O)CN(C)C(=O)CN2CCN(CC(=O)O)CCN(CC(=O)O)CCN(CC(=O)O)CC2)cc1)N1Cc2ccccc2C1)C(=O)NCc1c(F)cc(O)cc1F` [compound 46, 2,2′,2″-(10-(15-(4-((1S,4R,Z)-9-amino-4-((2,6-difluoro-4-hydroxybenzyl)carbamoyl)-1-(isoindolin-2-yl)-2,11,16-trioxo-3,8,10,12,15-pentaazaoctadec-9-en-1-yl)phenoxy)-3,6,9-trimethyl-2,5,8,11-tetraoxo-3,6,9,12-tetraazapentadecyl)-1,4,7,10-tetraazacyclododecane-1,4,7-triyl)triacetic acid] ({DOTA}-[Sar][Sar][Sar][X1][dArg(Nω-CONH(CH2)2NHCOEt)]-{NH(2,6-F2-4-OH-benzyl)}): greater than 8.00.
The same measure for `CCC(=O)NCCNC(=O)/N=C(/N)NCCC[C@@H](NC(=O)[C@H](c1ccccc1)N1Cc2cccc(NCCCNC(=O)CCC(=O)NCCNC(=O)CN3CCN(CC(=O)O)CCN(CC(=O)O)CCN(CC(=O)O)CC3)c2C1)C(=O)NCc1c(F)cc(O)cc1F` [compound 42, 2,2′,2″-(10-(2-((2-(4-((3-((2-((1S,4R,Z)-9-amino-4-((2,6-difluoro-4-hydroxybenzyl)carbamoyl)-2,11,16-trioxo-1-phenyl-3,8,10,12,15-pentaazaoctadec-9-en-1-yl)isoindolin-4-yl)amino)propyl)amino)-4-oxobutanamido)ethyl)amino)-2-oxoethyl)-1,4,7,10-tetraazacyclododecane-1,4,7-triyl)triacetic acid]: greater than 8.00; for `CCC(=O)NCCNC(=O)/N=C(/N)NCCC[C@@H](NC(=O)[C@H](c1cccc(N(C)CCCNC(=O)CCCCCNC(=O)CN2CCN(CC(=O)O)CCN(CC(=O)O)CCN(CC(=O)O)CC2)c1)N1Cc2ccccc2C1)C(=O)NCc1ccc(O)cc1` [compound 11, 2,2′,2″-(10-(2-((6-((3-((3-((1S,4R,Z)-9-amino-4-((4-hydroxybenzyl)carbamoyl)-1-(isoindolin-2-yl)-2,11,16-trioxo-3,8,10,12,15-pentaazaoctadec-9-en-1-yl)phenyl)(methyl)amino)propyl)amino)-6-oxohexyl)amino)-2-oxoethyl)-1,4,7,10-tetraazacyclododecane-1,4,7-triyl)triacetic acid]: greater than 8.00.
The same measure for `CC1(C)CCN(C(C(=O)N[C@H](CCCNC(=N)N)C(=O)NCc2ccc(O)cc2)c2ccccc2)CC1` (stereo partly drawn) [compound 74, (2R)-2-(2-(4,4-dimethylpiperidin-1-yl)-2-phenylacetamido)-5-guanidino-N-(4-hydroxybenzyl)pentanamide]: 6.00 to 7.00.
Regarding `CCC(=O)NCCNC(=O)/N=C(/N)NCCC[C@@H](NC(=O)[C@H](c1ccc(OCCCNC(=O)C[C@H]2NC(=O)[C@@H](CCCNC(=O)CN3CCN(CC(=O)O)CCN(CC(=O)O)CCN(CC(=O)O)CC3)NC2=O)cc1)N1Cc2ccccc2C1)C(=O)NCc1c(F)cc(O)cc1F` [compound 38, 2,2′,2″-(10-(2-((3-((2R,5R)-5-(2-((3-(4-((1S,4R,Z)-9-amino-4-((2,6-difluoro-4-hydroxybenzyl)carbamoyl)-1-(isoindolin-2-yl)-2,11,16-trioxo-3,8,10,12,15-pentaazaoctadec-9-en-1-yl)phenoxy)propyl)amino)-2-oxoethyl)-3,6-dioxopiperazin-2-yl)propyl)amino)-2-oxoethyl)-1,4,7,10-tetraazacyclododecane-1,4,7-triyl)triacetic acid], the pKi is greater than 8.00.
The same measure for `CCCC1CCN([C@H](C(=O)N[C@H](CCCNC(=N)N)C(=O)NCc2ccc(O)cc2)c2ccccc2)CC1` [compound 78, (R)-5-guanidino-N-(4-hydroxybenzyl)-2-((S)-2-phenyl-2-(4-propylpiperidin-1-yl)acetamido)pentanamide]: 6.00 to 7.00; for `CCC(=O)NCCNC(=O)/N=C(/N)NCCC[C@@H](NC(=O)[C@H](c1ccc(CCCOCCOCCNC(=O)CN2CCN(CC(=O)O)CCN(CC(=O)O)CCN(CC(=O)O)CC2)cc1)N1Cc2ccccc2C1)C(=O)NCc1c(F)cc(O)cc1F` (single isomer, unassigned) [8A]: greater than 8.00; for `CCC(=O)NCCNC(=O)/N=C(/N)NCCC[C@@H](NC(=O)[C@H](c1ccc(OCCCNC(=O)CCCCCNC(=O)CN2CCN(CC(=O)O)CCN(CC(=O)O)CCN(CC(=O)O)CC2)cc1)N1Cc2ccccc2C1)C(=O)NCc1c(F)cc(O)cc1F` [compound 36, 2,2′,2″-(10-(2-((6-((3-(4-((1S,4R,Z)-9-amino-4-((2,6-difluoro-4-hydroxybenzyl)carbamoyl)-1-(isoindolin-2-yl)-2,11,16-trioxo-3,8,10,12,15-pentaazaoctadec-9-en-1-yl)phenoxy)propyl)amino)-6-oxohexyl)amino)-2-oxoethyl)-1,4,7,10-tetraazacyclododecane-1,4,7-triyl)triacetic acid]: greater than 8.00.
Take `CCC(=O)NCCNC(=O)/N=C(/N)NCCC[C@@H](NC(=O)[C@H](c1ccc(OCCCN)cc1)N1Cc2ccccc2C1)C(=O)NCc1ccc(O)cc1` [64A, (R)-2-((S)-2-(4-(3-aminopropoxy)phenyl)-2-(isoindolin-2-yl)acetamido)-N-(4-hydroxybenzyl)-5-((Z)-2-((2-propionamidoethyl)carbamoyl)guanidino)pentanamide]: the pKi was greater than 8.00.
Regarding `CCC(=O)NCCNC(=O)/N=C(/N)NCCC[C@@H](NC(=O)[C@H](c1ccccc1)N1Cc2cccc(NC(=O)CCCNC(=O)CCCCCNC(=O)CN3CCN(CC(=O)O)CCN(CC(=O)O)CCN(CC(=O)O)CC3)c2C1)C(=O)NCc1c(F)cc(O)cc1F` [compound 9, 2,2′,2″-(10-(2-((6-((4-((2-((1S,4R,Z)-9-amino-4-((2,6-difluoro-4-hydroxybenzyl)carbamoyl)-2,11,16-trioxo-1-phenyl-3,8,10,12,15-pentaazaoctadec-9-en-1-yl)isoindolin-4-yl)amino)-4-oxobutyl)amino)-6-oxohexyl)amino)-2-oxoethyl)-1,4,7,10-tetraazacyclododecane-1,4,7-triyl)triacetic acid], the pKi was greater than 8.00.

In general, pKi refers to −log10 of the Ki, conventionally taken in molar units.
